In US20260083848A1, “COMBINATION OF CAR T-CELL THERAPY WITH BTK INHIBITORS AND METHODS OF USE THEREOF” (priority 2021, published 2026):
Entries after “also recorded” stand apart in the source; their conditions may differ.

Assays:
CART19 cells [1] = experiment: CART19 proliferation in co-culture with irradiated JeKo-1 cells (absolute CD3+ T cell counts by flow cytometry); type: cell-based, human; conditions: for toxicity to CART19 cells: in vitro, concentrations up to 10 μM
Protocol: CART19 proliferation in the presence of vecabrutinib was evaluated. CART19 cells were cocultured with irradiated JeKo-1 tumor cells at a 1:1 ratio for 24 hours in the presence of 1 μM or 10 μM vecabrutinib. Control co-culture was treated with DMSO vehicle only. Absolute CD3+ T cell counts were measured by flow cytometry.
CART19 cells were cocultured with irradiated JeKo-1 tumor cells at a 1:1 ratio for 24 hours in the presence of 1 μM or 10 μM. Control co-culture was treated with DMSO only. Absolute CD3+ T cell counts were measured by flow cytometry.

wild-type BTK = wild-type BTK (Homo sapiens, UniProt Q06187); conditions: Aslan, et al (2021); cited from earlier work
mutant BTK = conditions: Aslan, et al (2021); cited from earlier work
[2] = test system: pro-inflammatory cytokines in serum; experiment: Phase 1 clinical trial, serum cytokine panel in patients with B cell malignancies; type: in vivo, human; conditions: oral 20.5-410 mg twice daily, 4 weeks post-treatment vs pretreatment
Protocol: Human cancer patients having B cell malignancies were administered vecabrutinib in a Phase 1 clinical trial and a cytokine panel was used to evaluate cytokine levels in serum at 4 weeks following administration. Briefly, patients in the clinical trial had Chronic Lymphocytic Leukemia (CLL)/Small Lymphocytic Lymphoma (SLL) or Non Hodgkin's lymphoma (NHL) and had failed prior standard of care therapies. NHL indications included lymphoplasmacytoid lymphoma/Waldenstrom's macroglobulinemia (LPL/WM), mantle cell lymphoma (MCL), marginal zone lymphoma (MZL), diffuse large B-cell lymphoma of the activated B-cell subtype (DLBCL-ABC), and follicular lymphoma (FL). A group of 39 patients were orally administered a dose of 20.5 mg, 41 mg, 82 mg, 164 mg, 246 mg, 328 mg, or 410 mg of vecabrutinib as a capsule twice daily. Serum samples were collected from the patients prior to the start of treatment as 4-weeks post-treatment and analyzed by 38-multiplex (Millipore).

[3] = test system: CLL patients expressing BTK^C481S; conditions: Allan, et al (2019); cited from earlier work
CART19 cells [4] = experiment: CART19 cell degranulation (CD107α by flow cytometry) in co-culture with irradiated JeKo-1 cells; type: cell-based, human; conditions: 1 μM or 10 μM, 1:1 ratio, 4 hours; FIG. 3A
Protocol: CART19 cells were cocultured with irradiated JeKo-1 tumor cells at a 1:1 ratio for 4 hours in the presence of 1 μM or 10 μM vecabrutinib. […] Untransduced T cell/JeKo-1 co-culture treated with 1 μM or 10 μM vecabrutinib were used as a negative control as the non-antigen-specific T cells were not expected to undergo degranulation in the presence of JeKo-1 target cells. CD107α was used as a marker to quantify degranulation, as this marker becomes part of the cellular membrane and accessible to surface staining with CD107α-specific antibody in degranulating cells. Following coculture, cells were fixed, permeabilized, attained and analyzed for CD107 levels by flow cytometry.

[5] = test system: CD19-expressing JeKo-1 tumor cells; experiment: CART19-mediated killing of JeKo-1 tumor cells in in vitro co-culture (bioluminescence); type: cell-based, human
Protocol: CART19 cells and JeKo-1 tumor cells were cultured at a 1:1 ratio for 24 hours in the presence of 1 μM or 10 μM vecabrutinib. […] Control of untransduced (UTD) T cell/JeKo-1 co-culture in the presence of 1 μM or 10 μM vecabrutinib was used to determine any tumor cell killing induced by vecabrutinib in the absence of CART19 cells. The percentage of tumor cell killing was measured using bioluminescence imaging, with samples treated with D-luciferin prior to imaging. […] Control co-culture was treated with DMSO only. The percentage of tumor cell killing was measured as described above.

[6] = test system: JeKo-1 lymphoma xenograft; experiment: JeKo-1 lymphoma xenograft mouse model with CART19 cells; conditions: 50 mg/kg oral gavage twice daily for 4 weeks, in combination with CART19
Protocol: The impact of vecabrutinib on CART19 cell anti-tumor effects was evaluated using a JeKo-1 lymphoma xenograft mouse model. To establish the mouse model, NSG mice were inoculated with 1×10^6 luciferase^+ JeKo-1 tumor cells by intravenous injection at day −14. […] Treatment groups received either CART cells with DMSO vehicle or CART cells in combination with 50 mg/kg vecabrutinib. The control group received untransduced T cells with DMSO vehicle. Administration of vecabrutinib or vehicle commenced one day prior to CART19 administration (i.e., day −1), and was given by oral gavage. Untransduced or CART19 were infused by intravenous administration on day 0 at a dose of 1×10^6 cells per animal. Vecabrutinib and vehicle were administered by oral gavage twice daily over a period of 4 weeks. Mice were imaged weekly by IVIS to assess tumor burden. Blood samples were collected from the mice on a weekly basis and the level of circulating CART19 cells was measured by flow cytometry. Mouse weight was also measured on a weekly basis as a measure of treatment toxicity.

CART19 cells [7] = experiment: CART19 cell cytokine production in co-culture with JeKo-1 cells (38-multiplex of supernatants); type: cell-based, human; conditions: 1 μM or 10 μM, 1:1 ratio
Protocol: The effect of vecabrutinib treatment on CART19 cell cytokine production was also evaluated. CART19 cells were cocultured with irradiated JeKo-1 tumor cells at a 1:1 ratio for 3 days in the presence of 1 μM or 10 μM vecabrutinib. […] Untransduced T cell/JeKo-1 coculture treated with 1 μM or 10 μM vecabrutinib were used as a negative control as the non-antigen-specific T cells were not expected to undergo activation and cytokine production in the presence of JeKo-1 target cells. Supernatants were harvested and the levels of multiple cytokines and chemokines were analyzed with 38-multiplex (Millipore).

Chain of wild-type BTK (Q06187 whole entry): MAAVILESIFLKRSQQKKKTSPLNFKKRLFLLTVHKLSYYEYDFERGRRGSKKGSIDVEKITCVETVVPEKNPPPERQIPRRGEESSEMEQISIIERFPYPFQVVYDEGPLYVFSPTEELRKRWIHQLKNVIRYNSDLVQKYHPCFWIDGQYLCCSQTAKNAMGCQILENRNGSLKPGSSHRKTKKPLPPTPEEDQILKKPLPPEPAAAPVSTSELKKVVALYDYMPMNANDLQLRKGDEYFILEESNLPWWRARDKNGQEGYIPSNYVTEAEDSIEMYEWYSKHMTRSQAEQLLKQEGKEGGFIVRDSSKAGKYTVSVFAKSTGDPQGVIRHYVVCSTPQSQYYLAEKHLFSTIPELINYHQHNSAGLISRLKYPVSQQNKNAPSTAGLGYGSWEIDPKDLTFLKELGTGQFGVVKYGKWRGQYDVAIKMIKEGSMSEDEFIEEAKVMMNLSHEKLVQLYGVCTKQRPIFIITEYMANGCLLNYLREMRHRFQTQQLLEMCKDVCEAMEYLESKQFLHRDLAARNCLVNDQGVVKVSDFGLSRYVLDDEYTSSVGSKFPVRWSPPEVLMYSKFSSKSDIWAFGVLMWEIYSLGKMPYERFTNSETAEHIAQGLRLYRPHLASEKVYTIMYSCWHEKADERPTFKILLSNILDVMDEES

SMILES	toxicity to CART19 cells (CART19 cells [1])	inhibitory activity against wild-type BTK (wild-type BTK)	inhibitory activity against mutant BTK (mutant BTK)	CART proliferation compared to the DMSO control (CART19 cells [1]; 1 μM or 10 μM, 1:1 ratio, 24 hours, FIG. 2A)	CART19 proliferation compared to control (CART19 cells [1]; 10 μM, 1:1 ratio, 24 hours, FIG. 2A/2B)	serum level of IP-10 ([2]; FIG. 6A)	serum level of MIP-1β ([2]; FIG. 6B)	serum level of TNFα ([2]; FIG. 6C)	efficacy in CLL patients expressing BTK^C481S [3]	CART19 degranulation (CD107α) (CART19 cells [4])	CART19-mediated killing of Jeko-1 lymphoma cells as compared to ibrutinib ([5]; 0.625.1 CART19 to tumor cell ratio, 24 hours, normalized to BTK inhibitor only, FIG. 1B)	killing of CD19-expressing JeKo-1 tumor cells ([5]; CART19:JeKo-1 1:1, 24 hours, 1 μM or 10 μM, vs DMSO control, FIG. 1A)	antitumor activity (tumor burden by IVIS) compared to CART19 alone ([6]; FIG. 4A)	CART19 proliferation (circulating CART19 cells by flow cytometry) ([6]; FIG. 4B)	IL-6 in supernatant (CART19 cells [7]; FIG. 3B)	IL-10 in supernatant (CART19 cells [7]; FIG. 3C)	MIP-1β in supernatant (CART19 cells [7]; FIG. 3D)
C=CC(=O)N1CCC[C@@H](n2nc(-c3ccc(Oc4ccccc4)cc3)c3c(N)ncnc32)C1 [ibrutinib, reference compound]	toxic; also recorded: dose-dependent toxicity																
NC(=O)[C@H]1CCN(c2ncnc(N)c2F)C[C@@H]1N1CCC[C@@H](Nc2cc(Cl)cc(C(F)(F)F)c2)C1=O [vecabrutinib, (3R,3′R,4′S)-1′-(6-amino-5-fluoropyrimidin-4-yl)-3-((3-chloro-5-(trifluoromethyl)phenyl)amino)-2-oxo-[1,3′-bipiperidine]-4′-carboxamide]	well-tolerated; also recorded: not toxic	maintain inhibitory activity	maintain inhibitory activity	comparable	increased	significantly decreased	significantly decreased	significantly decreased	has efficacy	did not impair	significantly potentiated	significantly increased	sustained antitumor activity	increased	downregulation	downregulation	downregulation
